The text below walks through data of ChEMBL document CHEMBL1275596, “Prevalence of fosfomycin resistance among CTX-M-producing Escherichia coli clinical isolates in Japan and identification of novel plasmid-mediated fosfomycin-modifying enzymes” (2010).

SMILES strings stand for the structures. Converted amounts (≈) assume the structure as drawn.

What all share (format): functional
Experiment [1] has as its system Escherichia coli. In words: Antimicrobial activity against beta-lactamase CTX-M-producing Escherichia coli isolate 03-286 harboring glpT gene with 405[5-bp duplication]411.
Experiment [2] concerns Escherichia coli. In words: Antimicrobial activity against beta-lactamase CTX-M-producing Escherichia coli isolate 06-607.
Experiment [3] relates to Escherichia coli. The experiment is described as follows: Antimicrobial activity against beta-lactamase CTX-M-producing Escherichia coli isolate 05-244 harboring glpT gene with 328[14-bp duplication]343, uhpT gene with 1173[96-bp deletion]1270.
Experiment [4] has as its system Escherichia coli. In words: Antimicrobial activity against beta-lactamase CTX-M-producing Escherichia coli isolate 03-271.
Experiment [5] deals with Escherichia coli. In words: Antimicrobial activity against Escherichia coli CSH-2 conjugant of strain 08-607.
Experiment [6] concerns Escherichia coli. The experiment is described as follows: Antimicrobial activity against beta-lactamase CTX-M-producing Escherichia coli isolate 08-642.
Experiment [7] has as its system Escherichia coli. The experiment is described as follows: Antimicrobial activity against beta-lactamase CTX-M-producing Escherichia coli isolate 03-287 harboring glpT gene with 405[5-bp duplication]411.
Experiment [8] deals with Escherichia coli. The experiment is described as follows: Antimicrobial activity against beta-lactamase CTX-M-producing Escherichia coli isolate 08-555 harboring glpT gene with 981[227-bp deletion]1209.
The test system of experiment [9] is Escherichia coli. In words: Antimicrobial activity against streptomycin-, chloramphenicol-resistant pBCKS positive Escherichia coli DH10B transformant.
The subject of experiment [10] is Escherichia coli. In words: Antimicrobial activity against beta-lactamase CTX-M-producing Escherichia coli isolate 03-285.
The subject of experiment [11] is Escherichia coli. In words: Antimicrobial activity against Escherichia coli CSH-2 conjugant of strain 08-642.
Experiment [12] concerns Escherichia coli. The experiment is described as follows: Antimicrobial activity against Escherichia coli CSH-2 conjugant of strain C316.
The test system of experiment [13] is Escherichia coli. In words: Antimicrobial activity against Escherichia coli DH10B transformant containing Sac2 fragment with fosC2 gene from pHPA.
Experiment [14] concerns Escherichia coli. The experiment is described as follows: Antimicrobial activity against beta-lactamase CTX-M-producing Escherichia coli isolate C316.
Experiment [15] relates to Escherichia coli. The experiment is described as follows: Antimicrobial activity against Escherichia coli DH10B transformant containing Sac2 fragment with fosA3 gene from 08-607.
The test system of experiment [16] is Escherichia coli. In words: Antimicrobial activity against beta-lactamase CTX-M-producing Escherichia coli isolate 05-690 harboring uhpA stop at amino acid at 144.
The test system of experiment [17] is Escherichia coli. The experiment is described as follows: Antimicrobial activity against rifampin-, nalidixic acid resistant Escherichia coli CSH-2.
Experiment [18] has as its system Escherichia coli. In words: Antimicrobial activity against Escherichia coli DH10B transformant containing Kpn1 fragment with fosA3 gene from 08-642.
Experiment [19] relates to Escherichia coli. In words: Antimicrobial activity against beta-lactamase CTX-M-producing Escherichia coli isolate 03-285 by agar dilution method. (In general: In agar dilution, organisms are placed on agar that contains the substance at set levels.)
For experiment [20], the system named is Escherichia coli. In words: Antimicrobial activity against beta-lactamase CTX-M-producing Escherichia coli isolate C316 by agar dilution method.
Experiment [21] relates to Escherichia coli. The experiment is described as follows: Antimicrobial activity against Escherichia coli DH10B transformant containing Sac2 fragment with fosA3 gene from 08-607 by agar dilution method.
Experiment [22] concerns Escherichia coli. The experiment is described as follows: Antimicrobial activity against streptomycin-, chloramphenicol-resistant pBCKS positive Escherichia coli DH10B transformant by agar dilution method.
Experiment [23] relates to Escherichia coli. The experiment is described as follows: Antimicrobial activity against beta-lactamase CTX-M-producing Escherichia coli isolate 03-271 by agar dilution method.
The test system of experiment [24] is Escherichia coli. The experiment is described as follows: Antimicrobial activity against rifampin-, nalidixic acid resistant Escherichia coli CSH-2 by agar dilution method.
The subject of experiment [25] is Escherichia coli. The experiment is described as follows: Antimicrobial activity against Escherichia coli CSH-2 conjugant of strain C316 by agar dilution method.
The subject of experiment [26] is Escherichia coli. In words: Antimicrobial activity against beta-lactamase CTX-M-producing Escherichia coli isolate 06-607 by agar dilution method.
The subject of experiment [27] is Escherichia coli. The experiment is described as follows: Antimicrobial activity against beta-lactamase CTX-M-producing Escherichia coli isolate 05-690 harboring uhpA stop codon at amino acid at 144 by agar dilution method.
In experiment [28] the test system is Escherichia coli. In words: Antimicrobial activity against beta-lactamase CTX-M-producing Escherichia coli isolate 08-642 by agar dilution method.
In experiment [29] the test system is Escherichia coli. In words: Antimicrobial activity against Escherichia coli CSH-2 conjugant of strain 08-607 by agar dilution method.
The test system of experiment [30] is Escherichia coli. In words: Antimicrobial activity against Escherichia coli CSH-2 conjugant of strain 08-642 by agar dilution method.
The subject of experiment [31] is Escherichia coli. The experiment is described as follows: Antimicrobial activity against Escherichia coli DH10B transformant containing Sac2 fragment with fosC2 gene from pHPA by agar dilution method.
Experiment [32] concerns Escherichia coli. The experiment is described as follows: Antimicrobial activity against beta-lactamase CTX-M-producing Escherichia coli isolate 03-286 harboring glpT gene with 405[5-bp duplication]411 by agar dilution method.
For experiment [33], the system named is Escherichia coli. The experiment is described as follows: Antimicrobial activity against beta-lactamase CTX-M-producing Escherichia coli isolate 05-244 harboring glpT gene with 328[14-bp duplication]343, uhpT gene with 1173[96-bp deletion]1270 by agar dilution method.
For experiment [34], the system named is Escherichia coli. In words: Antimicrobial activity against Escherichia coli DH10B transformant containing Kpn1 fragment with fosA3 gene from 08-642 by agar dilution method.
The test system of experiment [35] is Escherichia coli. The experiment is described as follows: Antimicrobial activity against beta-lactamase CTX-M-producing Escherichia coli isolate 03-287 harboring glpT gene with 405[5-bp duplication]411 by agar dilution method.
Experiment [36] deals with Escherichia coli. In words: Antimicrobial activity against beta-lactamase CTX-M-producing Escherichia coli isolate 08-555 harboring glpT gene with 981[227-bp deletion]1209 by agar dilution method.

For `CO/N=C(\C(=O)N[C@@H]1C(=O)N2C(C(=O)O)=C(COC(C)=O)CS[C@H]12)c1csc(N)n1` [CEFOTAXIME], the MIC – broadly, the smallest concentration in the dilution series that meets the test's criterion for growth inhibition – in [1] is above 128 µg/mL; in experiment [2] it was 16 µg/mL (≈ 35.1 µM); in experiment [3], above 128 µg/mL; in experiment [4], 32 µg/mL (≈ 70.3 µM); in [5], 32 µg/mL (≈ 70.3 µM); in [6], 64 µg/mL (≈ 141 µM). Moreover, the MIC in experiment [7] was 128 µg/mL (≈ 281 µM); in experiment [8], above 128 µg/mL; in experiment [9], at most 0.06 µg/mL; in [10] it was above 128 µg/mL; in experiment [11], 128 µg/mL (≈ 281 µM); in [12], 64 µg/mL (≈ 141 µM). For the same compound, the MIC is at most 0.06 µg/mL in experiment [13]; 128 µg/mL (≈ 281 µM) in experiment [14]; at most 0.06 µg/mL in experiment [15]; 64 µg/mL (≈ 141 µM) in experiment [16]; at most 0.06 µg/mL in [17]; at most 0.06 µg/mL in [18].
In the case of `C[C@@H]1O[C@@H]1P(=O)(O)O` [FOSFOMYCIN], the minimum inhibitory concentration (MIC) is 128 µg/mL (≈ 927 µM) in experiment [19]; 256 µg/mL (≈ 1850 µM) in experiment [20]; above 256 µg/mL in experiment [21]; 0.5 µg/mL (≈ 3.62 µM) in experiment [22]; 64 µg/mL (≈ 464 µM) in [23]; 1 µg/mL (≈ 7.24 µM) in experiment [24]. The MIC in [25] is above 256 µg/mL; in [26] it was above 256 µg/mL; in [27], 64 µg/mL (≈ 464 µM); in [28], above 256 µg/mL; in experiment [29], above 256 µg/mL; in [30] it was above 256 µg/mL. Also, the MIC is above 256 µg/mL in experiment [31]; 64 µg/mL (≈ 464 µM) in experiment [32]; 128 µg/mL (≈ 927 µM) in experiment [33]; above 256 µg/mL in experiment [34]; above 256 µg/mL in experiment [35]; above 256 µg/mL in experiment [36].
